For 24 compounds, IC50 results are on record in patent US8716473B2, “Substituted benzotriazines and quinoxalines as inhibitors of P7OS6 kinase” (Sentinel Oncology Limited, priority 2009, dated 2014).

SMILES strings stand for the structures. Structures can show the parent of a compound that is named as a salt. Some results are limits rather than exact numbers.

Broadly, the IC50 is the point on the concentration scale where inhibition reaches its midpoint.

In one assay the target is p70S6K (h) (Homo sapiens, UniProt P23443). Nature of the assay: Determination of p70S6 inhibitory activity (radiometric 33P-ATP filter assay). To be noted: 40 min at room temperature, read-out: IC50 against P70S6 kinase. Format: biochemical. On the procedure: The ability of compounds of the invention to inhibit P70S6 kinase was determined using the protocol below.
p70S6K (h), sequence (P23443 whole entry): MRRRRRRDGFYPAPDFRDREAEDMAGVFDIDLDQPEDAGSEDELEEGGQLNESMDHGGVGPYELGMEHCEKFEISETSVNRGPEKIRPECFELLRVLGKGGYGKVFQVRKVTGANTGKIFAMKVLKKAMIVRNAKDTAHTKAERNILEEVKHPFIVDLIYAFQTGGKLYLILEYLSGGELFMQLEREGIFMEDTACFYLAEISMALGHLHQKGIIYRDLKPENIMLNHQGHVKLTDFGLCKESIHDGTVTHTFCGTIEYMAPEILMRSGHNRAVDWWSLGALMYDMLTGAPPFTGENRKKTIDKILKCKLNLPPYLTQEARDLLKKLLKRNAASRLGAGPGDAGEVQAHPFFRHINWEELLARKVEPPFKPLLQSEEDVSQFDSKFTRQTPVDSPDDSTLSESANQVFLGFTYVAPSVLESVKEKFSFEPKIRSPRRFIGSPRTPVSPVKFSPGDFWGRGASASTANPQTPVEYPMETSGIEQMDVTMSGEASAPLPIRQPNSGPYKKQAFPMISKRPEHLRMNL
• 20 mM MOPS, 1 mM EDTA, 0.01% Brij-35, 5% Glycerol, 0.1% b-mercaptoethanol, 1 mg/mL BSA Method: • p70S6K (h)
In a final reaction volume of 25 μL, p70S6K (h) (5-10 mU) is incubated with 8 mM MOPS pH 7.0, 0.2 mM EDTA, 100 μM KKRNRTLTV, 10 mM Mg acetate and [γ-33P-ATP] (specific activity approx. 500 cpm/pmol, concentration as required). The reaction is initiated by the addition of the MgATP mix. After incubation for 40 minutes at room temperature, the reaction is stopped by the addition of 5 μL of a 3% phosphoric acid solution. 10 μL of the reaction mixture is then spotted onto a P30 filtermat and washed three times for 5 minutes in 75 mM phosphoric acid and once in methanol prior to drying and scintillation counting.

The subject of assay [1] is phosphorylation of S6 Ser235/236 in MCF-7 cells. Nature of the assay: Inhibition of P70S6K activity in whole cells: phospho-S6 ELISA in MCF-7 cells. It is filed as cell-based. Conditions: Homo sapiens, MCF7, 2 h incubation, 1% FBS. Here is the method: The following assay provides IC50 values for inhibition of P70S6K activity in a whole cell assay by determining effects on the phosphorylation of S6^Ser235/236 in MCF-7 cells by ELISA.
The following protocol was used: • 1) MCF-7 cells were seeded in 96-well plates at a density of 7×10^3 cells per well and allowed to adhere for 6 h in media containing 10% FBS. • 2) The full serum media was replaced and cells incubated overnight in media containing 1% FBS, prior to addition of test compounds. • 3) Test compounds were prepared from 10 mM or 5 mM (BEZ-235) DMSO stocks to give final concentration ranges as indicated on graphs. DMSO was constant at a final concentration of 1%. • 4) Test compounds were incubated with cells in duplicate for 2 h at 37° C./5% CO2 in a humidified atmosphere. • 5) The media was removed and cells were lysed by freeze-thawing in cell lysis buffer. • 6) Detection of phosphorylated S6Ser235/236 was then carried out using a PathScan ELISA kit (Cell Signaling Technology #7205). • 7) Lysates were diluted 1:1 with sample diluent before being applied to wells coated with an antibody against phosphorylated-S6 protein. • 8) The ELISA was then performed as stated in the manufacturers' instructions. • 9) The raw data were normalised to control values and analysed using a 4-parameter logistic equation in GraphPad Prism.
In general terms: An ELISA detects its analyte on a solid surface through an enzyme-linked reagent.

Another assay deals with MCF-7 cells. Nature of the assay: MCF-7 proliferation assay (Alamar blue). Format: cell-based. Conditions: Homo sapiens, MCF7, 72 h incubation, read-out: IC50 for inhibition of cell growth. Here is the method:
The following assay was used to determine the ability of test compounds to inhibit cell growth.
The following protocol was used: • 1) MCF-7 cells were seeded in 96-well plates at 5000 cells per well and allowed to adhere overnight prior to addition of compound or vehicle control. • 2) Test compounds were prepared from 10 mM DMSO stocks to give a final concentration range of 100 μM, 30 μM, 10 μM, 3 μM, 1 μM, 0.3 μM, 0.1 μM, 0.03 μM, 0.01 μM and vehicle control. The DMSO content was constant at 1%. • 3) Test compounds were incubated with the cells for 72 h at 37° C. 5% CO2 in a humidified atmosphere. • 4) Alamar blue 10% (v/v) was then added and incubated for a further 6 h, and fluorescent product detected using the BMG FLUOstar plate reader. • 5) Data were analysed using a 4-parameter logistic equation in Graph Pad Prism.

With `Clc1cccc(CNc2cnc3cc(-c4cn[nH]c4)ccc3n2)c1` [Example 9, (3-Chloro-benzyl)-[6-(1H-pyrazol-4-yl)-quinoxalin-2-yl]-amine], the results for the 50% inhibitory concentration (IC50) (on p70S6K (h); in assay [1]; with MCF-7 cells) were less than 0.1 µM, less than 1 µM and less than 20 µM, respectively.

In the case of `c1ccc(CCNc2cnc3cc(-c4cn[nH]c4)ccc3n2)cc1` [Example 25, Phenethyl-[6-(1H-pyrazol-4-yl)-quinoxalin-2-yl]-amine hydrochloride], the half-maximal inhibitory concentration (IC50) at p70S6K (h) was less than 0.1 µM; in assay [1], less than 5 µM; in the assay on MCF-7 cells, less than 20 µM.

As for `Fc1cccc(CNc2cnc3cc(-c4cn[nH]c4)ccc3n2)c1` [Example 12, (3-Fluoro-benzyl)-[6-(1H-pyrazol-4-yl)-quinoxalin-2-yl]-amine hydrochloride], the half-inhibitory concentration (IC50) at p70S6K (h) was less than 0.1 µM; in assay [1], less than 5 µM; with MCF-7 cells it was less than 10 µM.

Regarding `CN(Cc1ccccc1)c1cnc2cc(-c3cn[nH]c3)ccc2n1` [Example 2, Benzyl-methyl-[6-(1H-pyrazol-4-yl)-quinoxalin-2-yl]-amine hydrochloride], the IC50 at p70S6K (h) is less than 0.1 µM; in assay [1], less than 5 µM; in the assay on MCF-7 cells it was less than 20 µM.

For the compound `COc1cccc(CN(C)c2cnc3cc(-c4cn[nH]c4)ccc3n2)c1` [Example 27, (3-Methoxy-benzyl)-methyl-[6-(1H-pyrazol-4-yl)-quinoxalin-2-yl]-amine], the IC50 was less than 0.1 µM on p70S6K (h), less than 1 µM in assay [1] and less than 50 µM in the assay on MCF-7 cells.

On to `COc1cccc(CNc2cnc3cc(-c4cn[nH]c4)ccc3n2)c1` [Example 18, (3-Methoxy-benzyl)-[6-(1H-pyrazol-4-yl)-quinoxalin-2-yl]-amine], for which the values for the IC50 (on p70S6K (h); in assay [1]; in the assay on MCF-7 cells) were less than 0.1 µM, less than 1 µM and less than 10 µM, respectively.

Turning to `CN1CCN(c2cccc(CNc3cnc4cc(-c5cn[nH]c5)ccc4n3)c2)CC1` [Example 6, [3-(4-Methyl-piperazin-1-yl)-benzyl]-[6-(1H-pyrazol-4-yl)-quinoxalin-2-yl]-amine hydrochloride], the half-maximal inhibitory concentration (IC50) on p70S6K (h) is less than 1 µM; in assay [1], less than 5 µM; in the assay with MCF-7 cells, less than 20 µM.

Regarding `Fc1ccc(CNc2cnc3cc(-c4cn[nH]c4)ccc3n2)cc1F` [Example 32, (3,4-Difluoro-benzyl)-[6-(1H-pyrazol-4-yl)-quinoxalin-2-yl]-amine], the IC50 was less than 0.1 µM at p70S6K (h), less than 5 µM in assay [1] and less than 50 µM with MCF-7 cells.

Turning to `OCCN(Cc1ccccc1)c1cnc2cc(-c3cn[nH]c3)ccc2n1` [Example 3, 2-{Benzyl-[6-(1H-pyrazol-4-yl)-quinoxalin-2-yl]-amino}-ethanol], the values for the half-inhibitory concentration (IC50) (at p70S6K (h); in assay [1]; in the assay on MCF-7 cells) were less than 0.1 µM, less than 5 µM and less than 20 µM, respectively.

Consider `Cc1cccc(CNc2cnc3cc(-c4cn[nH]c4)ccc3n2)c1` [Example 41, (3-Methyl-benzyl)-[6-(1H-pyrazol-4-yl)-quinoxalin-2-yl]-amine], for which the figures for the half-inhibitory concentration (IC50) (on p70S6K (h); in assay [1]; in the assay on MCF-7 cells) were less than 0.1 µM, less than 1 µM and less than 10 µM, respectively.

On to `c1ccc(CNc2cnc3cc(-c4cn[nH]c4)ccc3n2)cc1` [Example 1, Benzyl-[6-(1H-pyrazol-4-yl)-quinoxalin-2-yl]-amine], for which the 50% inhibitory concentration (IC50) on p70S6K (h) is less than 0.1 µM; in assay [1], less than 5 µM; in the assay on MCF-7 cells, less than 10 µM.

Consider `c1cc(CNc2cnc3cc(-c4cn[nH]c4)ccc3n2)cc(N2CCOCC2)c1` [Example 7, (3-Morpholin-4-yl-benzyl)-[6-(1H-pyrazol-4-yl)-quinoxalin-2-yl]-amine hydrochloride], for which the results for the half-inhibitory concentration (IC50) (at p70S6K (h); in assay [1]; in the assay with MCF-7 cells) were less than 5 µM, less than 5 µM and less than 20 µM, respectively.

Take `COc1ccc(CNc2cnc3cc(-c4cn[nH]c4)ccc3n2)cc1` [Example 17, (4-Methoxy-benzyl)-[6-(1H-pyrazol-4-yl)-quinoxalin-2-yl]-amine]: the values for the half-maximal inhibitory concentration (IC50) (at p70S6K (h); in assay [1]; in the assay on MCF-7 cells) were less than 1 µM, less than 5 µM and less than 10 µM, respectively.

Regarding `CCN(Cc1ccccc1)c1cnc2cc(-c3cn[nH]c3)ccc2n1` [Example 26, Benzyl-ethyl-[6-(1H-pyrazol-4-yl)-quinoxalin-2-yl]-amine], the IC50 is less than 0.1 µM at p70S6K (h) and less than 50 µM in the assay on MCF-7 cells.

On to `Fc1ccccc1CNc1cnc2cc(-c3cn[nH]c3)ccc2n1` [Example 13, (2-Fluoro-benzyl)-[6-(1H-pyrazol-4-yl)-quinoxalin-2-yl]-amine hydrochloride], for which the values for the IC50 on p70S6K (h) and in the assay with MCF-7 cells were less than 1 µM and less than 20 µM, respectively.

For the compound `c1cc(CNc2cnc3cc(-c4cn[nH]c4)ccc3n2)cs1` [Example 38, [6-(1H-Pyrazol-4-yl)-quinoxalin-2-yl]-thiophen-3-ylmethyl-amine], the half-maximal inhibitory concentration (IC50) at p70S6K (h) was less than 0.1 µM; in the assay on MCF-7 cells it was less than 10 µM.

Take `CN(C)CCOc1cccc(CNc2cnc3cc(-c4cn[nH]c4)ccc3n2)c1` [Example 31, [3-(2-Dimethylamino-ethoxy)-benzyl]-[6-(1H-pyrazol-4-yl)-quinoxalin-2-yl]-amine hydrochloride]: the IC50 is less than 5 µM at p70S6K (h) and less than 20 µM in the assay on MCF-7 cells.

As for `Fc1ccc(CNc2cnc3cc(-c4cn[nH]c4)ccc3n2)cc1` [Example 11, (4-Fluoro-benzyl)-[6-(1H-pyrazol-4-yl)-quinoxalin-2-yl]-amine hydrochloride], the results for the IC50 (at p70S6K (h); in assay [1]; in the assay on MCF-7 cells) were less than 0.1 µM, less than 5 µM and less than 10 µM, respectively.

As for `C[C@@H](Nc1cnc2cc(-c3cn[nH]c3)ccc2n1)c1ccccc1` [Example 33, ((R)-1-Phenyl-ethyl)-[6-(1H-pyrazol-4-yl)-quinoxalin-2-yl]-amine], the 50% inhibitory concentration (IC50) was less than 0.1 µM on p70S6K (h), less than 1 µM in assay [1] and less than 20 µM in the assay on MCF-7 cells.

In the case of `Clc1ccc(CNc2cnc3cc(-c4cn[nH]c4)ccc3n2)cc1` [Example 8, (4-Chloro-benzyl)-[6-(1H-pyrazol-4-yl)-quinoxalin-2-yl]-amine], the half-maximal inhibitory concentration (IC50) is less than 0.1 µM on p70S6K (h), less than 5 µM in assay [1] and less than 20 µM with MCF-7 cells.

With `COc1cccc([C@@H](C)Nc2cnc3cc(-c4cn[nH]c4)ccc3n2)c1` [Example 50, [(R)-1-(3-Methoxy-phenyl)-ethyl]-[6-(1H-pyrazol-4-yl)-quinoxalin-2-yl]-amine hydrochloride], the half-maximal inhibitory concentration (IC50) is less than 0.1 µM on p70S6K (h), less than 1 µM in assay [1] and less than 10 µM with MCF-7 cells.

As for `CN(Cc1cccc(F)c1)c1cnc2cc(-c3cn[nH]c3)ccc2n1` [Example 28, (3-Fluoro-benzyl)-methyl-[6-(1H-pyrazol-4-yl)-quinoxalin-2-yl]-amine], the half-maximal inhibitory concentration (IC50) was less than 0.1 µM at p70S6K (h), less than 1 µM in assay [1] and less than 10 µM in the assay on MCF-7 cells.

Regarding `CN(Cc1ccc(F)cc1)c1cnc2cc(-c3cn[nH]c3)ccc2n1` [Example 21, (4-Fluoro-benzyl)-methyl-[6-(1H-pyrazol-4-yl)-quinoxalin-2-yl]-amine], the values for the IC50 (at p70S6K (h); in assay [1]; in the assay with MCF-7 cells) were less than 0.1 µM, less than 5 µM and less than 50 µM, respectively.

As for `Oc1cccc(CNc2cnc3cc(-c4cn[nH]c4)ccc3n2)c1` [Example 54, 3-{[6-(1H-Pyrazol-4-yl)-quinoxalin-2-ylamino]-methyl}-phenol], the IC50 was less than 0.1 µM on p70S6K (h) and less than 5 µM in assay [1].
